# Experimental data: article PMC11952368 (bioRxiv, 2025)
# How the values were obtained:
# [1] = body and spleen weight / systemic toxicity, combination with Dox; format: in vivo, BALB/c mice; conditions: Dox 5 mg/kg i.p. every 72 hr; n=4 mice per group
# [2] = system: mammary tumor; conditions: ref [87]; cited from earlier work
SMILES,body and spleen weight [1],tumor ECM normalization and chemotherapy response [2]
"COc1cccc2c1C(=O)c1c(O)c3c(c(O)c1C2=O)C[C@@](O)(C(=O)CO)C[C@@H]3O[C@H]1C[C@H](N)[C@H](O)[C@H](C)O1 [Dox, doxorubicin]",loss of body and spleen weight,
Cc1ccc(=O)n(-c2ccccc2)c1 [Pirfenidone],,normalizes the tumor ECM for enhanced chemotherapy response
